According to patent US11873298B2, “Compounds and uses thereof” (JANSSEN PHARMACEUTICA NV, priority 2017, dated 2024):
Values joined by “and” are separate entries in the source; they are usually repeats but may differ in a detail not shown here. Equal entries are not always repeated.

Columns and labels:
Assay type in all cases: cell-based
SCD5 = molecular target: T1, SCD5 (Homo sapiens, UniProt Q86SK9); test: Growth inhibition of humanized yeast strain expressing SCD5 as sole desaturase; details: humanized yeast strain expressing SCD5
T1 construct: host or cells: S. cerevisiae ole1Δ strain (W303 pdr1Δ pdr3Δ background), plasmid pRS316 with TDH3 promoter and CYC1 terminator
T1 sequence (Q86SK9 1-330): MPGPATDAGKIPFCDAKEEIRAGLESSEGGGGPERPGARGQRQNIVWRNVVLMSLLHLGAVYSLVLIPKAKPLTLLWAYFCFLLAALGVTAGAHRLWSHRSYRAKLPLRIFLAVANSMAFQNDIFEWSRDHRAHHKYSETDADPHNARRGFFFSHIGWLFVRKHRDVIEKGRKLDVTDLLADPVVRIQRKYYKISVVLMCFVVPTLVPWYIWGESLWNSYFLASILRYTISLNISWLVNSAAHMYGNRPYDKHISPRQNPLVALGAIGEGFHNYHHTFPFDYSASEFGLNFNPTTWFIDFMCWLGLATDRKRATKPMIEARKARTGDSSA
Summary of the method: (§1)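 OD600 growth read-out. ole1Δ yeast, pdr1Δ pdr3Δ, with Ole1/SCD1/SCD5 on a plasmid; SX-Ura media throughout; 2× cell density 0.02 in CSM-Galactose; DMSO compound dilutions; humidified 30° C.; Ole1 stopped at 24 h, SCD1/SCD5 at 40 h.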

SCD1 = molecular target: T2, SCD1 (Homo sapiens, UniProt O00767); test: Growth inhibition of humanized yeast strain expressing SCD1 as sole desaturase; details: humanized yeast strain expressing SCD1
T2 construct: host or cells: S. cerevisiae ole1Δ strain (W303 pdr1Δ pdr3Δ background), plasmid pRS316 with TDH3 promoter and CYC1 terminator
T2 sequence (O00767 1-359): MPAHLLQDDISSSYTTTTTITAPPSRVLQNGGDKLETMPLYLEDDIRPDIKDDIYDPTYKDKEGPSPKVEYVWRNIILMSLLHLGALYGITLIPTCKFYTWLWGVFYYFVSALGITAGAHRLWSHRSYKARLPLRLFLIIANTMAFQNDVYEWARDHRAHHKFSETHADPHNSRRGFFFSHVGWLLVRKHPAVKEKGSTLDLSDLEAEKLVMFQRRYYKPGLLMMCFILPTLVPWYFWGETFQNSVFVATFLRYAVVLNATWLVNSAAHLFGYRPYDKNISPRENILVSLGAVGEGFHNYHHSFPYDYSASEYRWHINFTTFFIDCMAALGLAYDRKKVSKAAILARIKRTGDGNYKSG
Summary of the method: as §1

Ole1 = molecular target: T3, Ole1 (Saccharomyces cerevisiae, UniProt P21147); test: Growth inhibition of yeast strain expressing Ole1 as sole desaturase; details: yeast strain expressing Ole1 as sole desaturase
T3 construct: expressed in transfected cells; host or cells: S. cerevisiae ole1Δ strain (W303 pdr1Δ pdr3Δ background), plasmid pRS316 with TDH3 promoter and CYC1 terminator
T3 sequence (P21147 1-510): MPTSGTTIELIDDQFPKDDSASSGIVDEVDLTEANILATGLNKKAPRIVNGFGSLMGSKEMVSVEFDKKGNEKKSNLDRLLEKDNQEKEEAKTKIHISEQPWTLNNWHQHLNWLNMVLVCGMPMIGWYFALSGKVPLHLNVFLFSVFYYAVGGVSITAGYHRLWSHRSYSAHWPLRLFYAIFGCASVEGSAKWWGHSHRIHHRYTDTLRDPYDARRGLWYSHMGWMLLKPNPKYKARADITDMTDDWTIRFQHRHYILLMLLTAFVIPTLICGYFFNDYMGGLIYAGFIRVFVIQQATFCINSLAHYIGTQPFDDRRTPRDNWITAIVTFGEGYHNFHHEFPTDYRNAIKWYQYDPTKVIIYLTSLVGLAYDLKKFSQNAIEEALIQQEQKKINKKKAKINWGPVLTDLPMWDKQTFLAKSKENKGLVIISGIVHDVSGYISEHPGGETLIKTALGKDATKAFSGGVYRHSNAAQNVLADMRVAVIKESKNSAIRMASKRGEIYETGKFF
Summary of the method: as §1

SMILES	IC50 (SCD5)	SCD5 % Max Inhibition (SCD5)	IC50 (SCD1)	SCD1 % Max Inhibition (SCD1)	IC50 (Ole1)	OLE1 % Max Inhibition (Ole1)
Cc1ccc(N2CC(C(=O)N3CCC(c4nc(N5CC6(COC6)C5)no4)CC3)CC2=O)nc1 (stereo not drawn) [Compound 333]	> 45 µM	62.3%	> 45 µM	55.6%	> 45 µM	81.2%
CCn1nc2cc(-c3noc(C4CCN(C(=O)OC(C)(C)C)CC4)n3)ccc2c1C [Compound 342]	> 45 µM	43.5%	> 45 µM	75.9%	> 45 µM	80.9%
CCOC(=O)C(C)(C)n1cc2ccc(-c3noc(C4CCN(C(=O)CNC(=O)c5ccccc5)CC4)n3)cc2n1 [Compound 194]	> 45 µM	63.24%	> 45 µM	74.07%	> 45 µM	60.71%
CC(C)n1ncc2ccc(-c3noc(C4CCN(C(=O)OC(C)(C)C)CC4)n3)cc21 [Compound 265]	> 45 µM	10.96% and 3.97%	≥ 45 µM	76.74% and 54.38%	> 45 µM	103.04% and 83.99%
CCc1nn(C)c2cc(-c3noc(C4CCN(C(=O)CNC(=O)c5ccccc5)CC4)n3)ccc12 [Compound 309]	> 45 µM	14.7%	–	80.6%	> 45 µM	8.0%
O=C(C1CC(=O)N(c2ccccc2)C1)N1CCC(c2nc(N3CC4(COC4)C3)no2)CC1 (stereo not drawn) [Compound 231]	> 45 µM	3.11%	> 45 µM	80.00%	> 45 µM	29.53%
CCN(Cc1nc(-c2ccc(OC)c(OC)c2)no1)C(=O)Cc1cccc2ccccc12 [Compound 157]	> 45 µM	72.54%	> 45 µM	80.54%	> 45 µM	91.55%
CCN1C(=O)COc2ccc(-c3noc(C4(c5ccc(OC)cc5)CC4)n3)cc21 [Compound 491]	> 45 µM	83.61%	–	118.81%	> 45 µM	107.15%
O=C(C1CC(=O)N(c2ccccc2)C1)N1CCC(c2nc(-c3ccc4c(c3)COC4)no2)CC1 (stereo not drawn) [Compound 220]	> 45 µM	13.65%	> 45 µM	87.27%	> 45 µM	3.10%
Cc1nn(C)c2cc(-c3noc(C4CCN(C(=O)[C@H]5CCN(C(=O)c6ccccc6)C5)CC4)n3)ccc12 [Compound 239]	> 45 µM	6.02%	> 45 µM	75.58%	> 45 µM	29.21%
COc1cc(-c2noc(C3CCN(C(=O)CNC(=O)c4ccccc4)CC3)n2)ccc1OC1CC1 [Compound 249]	41.7 µM	61.88%	–	80.12%	> 45 µM	88.69%
Cc1nn(C)c2cc(-c3noc(C4CCN(C(=O)[C@@H]5CC(=O)N(c6ccc(C#N)cc6)C5)CC4)n3)ccc12 [Compound 308]	> 45 µM	15.5% and 6.81%	≥ 45 µM	81.6% and 61.05%	> 45 µM and 27.2 µM	63.7% and 49.30%
N#Cc1ccc(-c2noc(C3CCN(C(=O)[C@H]4CC(=O)N(c5ccccc5)C4)CC3)n2)s1 [Compound 247]	> 45 µM	72.46%	–	79.89%	> 45 µM	98.49%
CCOc1ccc(-c2noc(C3CCN(C(=O)CN4Cc5cc(F)ccc5C4=O)CC3)n2)cc1OC [Compound 176]	> 45 µM	83.50%	> 45 µM	107.22%	> 45 µM	3.62%
Cc1nn(C)c2cc(-c3noc(N4CCN(C(=O)c5ccccc5C(F)(F)F)CC4)n3)ccc12 [Compound 295]	> 45 µM	9.2%	–	14.4%	> 45 µM	18.4%
Cc1nn(C)c2cc(-c3noc(C4CCN(C(=O)NC(C)(C)C)CC4)n3)ccc12 [Compound 282]	28.9 µM	56.23%	–	90.54%	> 45 µM	110.18%
Cc1nn(C)c2cc(-c3nc(C4CCN(C(=O)C5CC(=O)N(c6cccc(C#N)c6)C5)CC4)no3)ccc12 (stereo not drawn) [Compound 331]	> 45 µM	24.9%	> 45 µM	41.9%	> 45 µM	13.7%
Cc1nn(C)c2cc(-c3noc(C4CCN(C(=O)CNC(=O)c5ccccc5)C4)n3)ccc12 (stereo not drawn) [Compound 209]	> 45 µM	78.88%	> 45 µM	101.51%	> 45 µM	3.74%
CC(C)n1cc(-c2noc(C3CCN(C(=O)C4CC(=O)N(c5cccc(Cl)c5)C4)CC3)n2)cn1 (stereo not drawn) [Compound 338]	> 45 µM	76.3%	> 45 µM	60.0%	> 45 µM	85.2%
COc1ccc(-c2noc(CCNC(=O)CNC(=O)c3ccccc3)n2)cc1OC [Compound 484]	> 45 µM	81.46%	–	75.84%	> 45 µM	92.09%
CC1(C)CC(=O)c2c(O)cc(OCC(=O)NCCc3nc(-c4ccccc4)no3)cc2O1 [Compound 487]	40.2 µM	70.73%	–	83.76%	> 45 µM	103.20%
Cc1nn(C)c2cc(-c3nc(C4CCN(C(=O)CNC(=O)c5ccccc5)CC4)no3)ccc12 [Compound 326]	> 45 µM	26.5%	–	77.1%	> 45 µM	7.5%
Cc1nn(C)c2cc(-c3noc(C4CCN(C(=O)c5ccccc5)CC4)n3)ccc12 [Compound 280]	> 45 µM	8.86%	–	11.48%	> 45 µM	17.18%
Cc1nn(C)c2cc(-c3noc(C4CCN(C(=O)[C@H]5CN(c6ccccc6)C(=O)O5)CC4)n3)ccc12 [Compound 173]	29.8 µM	42.09%	> 45 µM	78.07%	> 45 µM	99.75%
Cc1nn(C)c2ccc(-c3noc(C4CCN(C(=O)c5ccc(C(C)C)cc5)CC4)n3)cc12 [Compound 297]	> 45 µM	9.2%	–	5.7%	25.2 µM	42.0%
Cc1nn(C2CC2)c2cc(-c3noc(C4CCN(C(=O)CNC(=O)c5ccccc5)CC4)n3)ccc12 [Compound 286]	> 45 µM	8.76% and 9.55%	–	13.04% and 14.44%	> 45 µM	5.18% and 4.35%
CCOc1ccc(-c2noc(C3CCN(C(=O)C4CN(C(=O)c5ccccc5)C4)CC3)n2)cc1OC [Compound 237]	32.6 µM	45.34%	> 45 µM	71.76%	> 45 µM	18.53%
